Source: patent US20100297256A1, “METHODS AND COMPOSITIONS FOR INHIBITING INTEGRINS USING TELLURIUM-CONTAINING COMPOUNDS” (priority 2007, published 2010)

Columns and labels:
[1] = test system: chick chorioallantoic membrane; assay: Chick chorioallantoic membrane (CAM) angiogenesis assay; format: in vivo; settings: 5 μg/ml combined with ECGS 50 μg/ml, 3 days
Procedure: Collagen I solution was prepared by mixing 1.8 ml of collagen I, 4.14 μl of […] NaOH and 0.2 ml of 10×PBS/200 mM HEPES (pH 7.4). 10 μl of a mixture containing 0.1 ml of the collagen I solution and 0.2 ml of PBS either with or without AS101 (5 μg/ml) or SAS (5 μg/ml) was loaded onto a quarter piece of a Thermonox disc and gelled by warming to room temperature for 15 minutes. The disc was then applied to the chorioallantoic membrane of a 10-days-old embryo, following preparation of the eggs by removing 2 ml of albumin from the 3-days-old embryo and by “opening a window” to the 7-day-old embryo. ECGS (50 μg/ml) in PBS was used to induce angiogenesis and 5 μg/ml of AS101 or SAS were mixed with ECGS. After 3-days incubation, the negative or positive response was assessed under a binocular. Positive response, namely the appearance of a typical spokewheel pattern of new blood vessels around the loaded samples, was determined by a blinded observer. Assays for each test sample were carried out three times, and each experiment contains 10 to 12 eggs/data point.

C57B1/6N female mice = assay: Mouse plug in vivo migration and angiogenesis assay; settings: 20 μg/mouse s.c. daily, 10 days, ECGS 500 μg/ml in Matrigel
Procedure: Matrigel was mixed with ECGS (500 μg/ml) and injected subcutaneously into C57B1/6N female mice on the ventral surface of the animal. During 10 days, every day, AS101 or SAS (20 μg/mouse in Matrigel) were injected subcutaneously. After 10 days, the plugs were removed with some surrounding tissue, fixed in 10% formalin, and paraffin-embedded. Sections were deparaffinized, and stained with hematoxylin and eosin dyes. In the most positive regions, stained cells were counted by a blinded observer. In each treatment group there were 5-6 mice, and the experiment was performed twice. Images from the sections were captured using a 10× objective of an Olympus microscope.

B16F10 melanoma cells = assay: Tumor growth in vivo on CAM; set-up: species or system murine; settings: 5 μg daily, 7 days
Procedure: B16F10 melanoma cells (10^6 cells/[…]) in Matrigel were added directly onto the CAM of the 7-days-old embryo (embryos were prepared as described hereinabove). AS101 and SAS (5 μg) were added daily. After a 7-days incubation, with treatment performed each day (PBS, AS101 or SAS), tumors were excised and weighed. Formalin-fixed tumor tissues were paraffin embedded, sectioned at 10 μm, and stained with hematoxylin and eosin (H&E) for examination of tumor cell proliferation and vessel density.

HUVEC endothelial cells = assay: Tube formation assay, HUVEC; format: cell-based; settings: HUVEC on Matrigel, 3 hours
Procedure: Plates (48 wells) were coated with 150 μl of Matrigel and incubated at 37° C. for 1 hour to promote gelling. Svec4-10 or HUVEC cells (40,000 cells) in 0.5 ml of serum-free DMEM with varying concentration of AS101 or SAS were added to each well. For positive control, ECGS was added at a concentration of 50 μg/ml. All samples were performed in sextuplicate. After 3 hours incubation, the plates were fixed with methanol and stained with crystal violet. Randomly chosen fields were photographed and density of tube formation was analyzed by imageJ.

SVEC4-10 cells [2] = assay: Boyden chamber migration assay; format: cell-based, murine; settings: 6 hours
Procedure: Migration assay was performed in a 48-well microchemotaxis chamber. Polyester membranes with 8 μm pores were coated with 0.1 mg/ml of collagen I in DMEM and then dried for 1 hour. B16F10 and Svec4-10 cells were harvested using TE and resuspended in DMEM containing 0.1% BSA. The bottom chamber was loaded with Svec4-10 supernatant/DMEM (1:5) containing varying concentration of AS101 or SAS and the filter was laid over the treatment solutions. Non-diluted Svec4-10 supernatant was used as a positive control. The upper wells were then loaded with 30,000 cells, the chamber was incubated at 37° C. for 6 hours and the filters were fixed and stained using Diff-Quick. The cells that migrated through the filter were quantified by counting the center of each well in a 36-box grid at ×20 using an Olympic CK2 microscope. Each condition was studied in triplicate wells, and each experiment was performed three times.

SVEC4-10 cells [3] = assay: "Scratch" wound closure assay; format: cell-based, murine; settings: 1 μg/ml, ECGS 100 μg/ml, cells counted at 12 hours
Procedure: Confluent Svec4-10 monolayers in 6 mm plates were “scratch” wounded using the tip of a universal blue pipette tip and rinsed with PBS. AS101 or SAS (1 μg/ml final concentration) or ECGS (100 μg/ml) were added to the plates containing serum-free DMEM. The plates were incubated at 37° C. and fixed and stained at several time points. Migrated cells at 12 hours were counted along the scratch. The centers of plates at all times were photographed for presented data. The experiment was repeated three times.

RAW cells = assay: Cell attachment assay, RAW; format: cell-based
West Nile Virus (WNV) = assay: Cell-free virus assay; format: cell-based; settings: Vero cells, 5 and 10 μg/ml 1 hour before infection, 1 hour after adsorption
Procedure: Cells were plated 20 hours before virus infection in 6-well plates at a density of 2×10^5 cells/plate, and treated with AS101 (1-10 μg/ml) for 1 hour or for 5-10 minutes before WNV infection. The cells were infected at MOI=5 PFU/cell and incubated for 1 hour at 37° C., 5% CO2. Supernatants were collected immediately following the incubation, and the concentration of the virus which remained cell-free in the culture supernatant was measured by viral plaque assay, as described above.

integrin α subunits = assay: Multiple anti-integrin antibody binding assay, α subunits; format: cell-based; settings: SVEC cells
Procedure: The specificity of tellurium-containing compounds to integrins was tested by examining the effect of AS101 and SAS on the attachment of SVEC cells to specific anti-integrin antibodies. Commercially available kits (R&D Biosystems) with anti-integrin coated wells were used, and attachment was determined according to the manufacturer's instructions.

Structure (SMILES)	angiogenic capability of ECGS [1]	endothelial cell invasion and migration into Matrigel plug (angiogenesis) (C57B1/6N female mice)	tumor growth and weight on chorioallantoic membrane (B16F10 melanoma cells)	number of tubes formed (HUVEC endothelial cells)	directional migration of murine endothelial cells through the membrane (SVEC4-10 cells [2])	ECGS-induced scratch wound repair by cell migration (SVEC4-10 cells [3])	cell attachment to fibronectin (RAW cells)	WNV infectious units in culture supernatant relative to untreated cells (West Nile Virus (WNV))	cell attachment to antibodies against integrin α subunits (integrin α subunits)
Cl[TeH]1(Cl)(Cl)OCCO1 [AS101, ammonium trichloro(dioxyethylene-O,O′)tellurate]	reduced the angiogenic capability of ECGS to baseline levels	inhibit endothelial cell invasion and migration	reduced tumor growth and weight	reduced the number of tubes formed	inhibited the directional migration	reduce ECGS-induced scratch wound repair	inhibited cell attachment to fibronectin	approximately twice	little if any inhibition
O=C1O[Te]23OC(=O)C(O2)C2O[Te]4(OC(=O)C(O4)C1O3)OC2=O [SAS, [TeO4(COCH)2]2]	reduced the angiogenic capability of ECGS to baseline levels	inhibit endothelial cell invasion and migration	reduced tumor growth and weight	reduced the number of tubes formed	inhibited the directional migration	reduce ECGS-induced scratch wound repair	inhibited cell attachment to fibronectin		little if any inhibition
